Laboratory results from PMC3961306, “Comparison of the Cancer Gene Targeting and Biochemical Selectivities of All Targeted Kinase Inhibitors Approved for Clinical Use” (PLoS ONE, 2014).
Read-outs that look alike come from different tables or passages of the source.

Tests used:
Assay in all cases: Kinase profiling in a biochemical assay panel (mobility shift assays and ELISA), %-inhibition at 1 μM; selectivity entropy
[1] = target: panel of more than 300 wild-type and mutant kinases (313 kinase panel) (Homo sapiens, UniProt O95819)
[2] = target: T1, panel of more than 300 wild-type and mutant kinases (313 kinase panel) (Homo sapiens, UniProt P29323)
T1 sequence (P29323 19-1055): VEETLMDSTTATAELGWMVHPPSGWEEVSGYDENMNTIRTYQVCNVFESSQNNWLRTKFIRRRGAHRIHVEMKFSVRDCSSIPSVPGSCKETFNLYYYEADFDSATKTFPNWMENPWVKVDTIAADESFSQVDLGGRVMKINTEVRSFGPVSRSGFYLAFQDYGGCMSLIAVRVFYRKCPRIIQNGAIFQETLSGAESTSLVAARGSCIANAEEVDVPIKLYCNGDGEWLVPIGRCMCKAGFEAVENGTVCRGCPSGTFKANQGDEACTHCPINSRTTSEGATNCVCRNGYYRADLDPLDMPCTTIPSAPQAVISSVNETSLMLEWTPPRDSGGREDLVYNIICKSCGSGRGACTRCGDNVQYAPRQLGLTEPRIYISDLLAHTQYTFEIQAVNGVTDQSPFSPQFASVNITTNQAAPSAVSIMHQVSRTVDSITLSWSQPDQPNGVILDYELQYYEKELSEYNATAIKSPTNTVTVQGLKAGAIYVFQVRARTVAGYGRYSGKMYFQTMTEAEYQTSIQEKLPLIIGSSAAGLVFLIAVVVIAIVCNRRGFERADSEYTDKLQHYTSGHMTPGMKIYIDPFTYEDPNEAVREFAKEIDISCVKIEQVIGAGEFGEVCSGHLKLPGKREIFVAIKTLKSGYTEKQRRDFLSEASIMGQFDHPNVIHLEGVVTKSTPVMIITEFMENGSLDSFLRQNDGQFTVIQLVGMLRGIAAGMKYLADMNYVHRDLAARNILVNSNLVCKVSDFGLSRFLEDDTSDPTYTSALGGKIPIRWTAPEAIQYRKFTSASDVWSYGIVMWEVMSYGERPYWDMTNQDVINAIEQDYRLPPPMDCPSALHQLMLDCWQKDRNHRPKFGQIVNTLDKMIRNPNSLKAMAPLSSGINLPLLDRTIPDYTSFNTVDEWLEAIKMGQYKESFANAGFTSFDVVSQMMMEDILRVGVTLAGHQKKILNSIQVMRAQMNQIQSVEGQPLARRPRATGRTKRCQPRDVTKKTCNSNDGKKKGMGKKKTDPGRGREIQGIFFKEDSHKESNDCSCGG

[3] = target: panel of more than 300 wild-type and mutant kinases (313 kinase panel) (Homo sapiens, UniProt P51957)
Sequence of panel of more than 300 wild-type and mutant kinases (313 kinase panel) (Homo sapiens, UniProt P51957) (P51957 whole entry, change not shown): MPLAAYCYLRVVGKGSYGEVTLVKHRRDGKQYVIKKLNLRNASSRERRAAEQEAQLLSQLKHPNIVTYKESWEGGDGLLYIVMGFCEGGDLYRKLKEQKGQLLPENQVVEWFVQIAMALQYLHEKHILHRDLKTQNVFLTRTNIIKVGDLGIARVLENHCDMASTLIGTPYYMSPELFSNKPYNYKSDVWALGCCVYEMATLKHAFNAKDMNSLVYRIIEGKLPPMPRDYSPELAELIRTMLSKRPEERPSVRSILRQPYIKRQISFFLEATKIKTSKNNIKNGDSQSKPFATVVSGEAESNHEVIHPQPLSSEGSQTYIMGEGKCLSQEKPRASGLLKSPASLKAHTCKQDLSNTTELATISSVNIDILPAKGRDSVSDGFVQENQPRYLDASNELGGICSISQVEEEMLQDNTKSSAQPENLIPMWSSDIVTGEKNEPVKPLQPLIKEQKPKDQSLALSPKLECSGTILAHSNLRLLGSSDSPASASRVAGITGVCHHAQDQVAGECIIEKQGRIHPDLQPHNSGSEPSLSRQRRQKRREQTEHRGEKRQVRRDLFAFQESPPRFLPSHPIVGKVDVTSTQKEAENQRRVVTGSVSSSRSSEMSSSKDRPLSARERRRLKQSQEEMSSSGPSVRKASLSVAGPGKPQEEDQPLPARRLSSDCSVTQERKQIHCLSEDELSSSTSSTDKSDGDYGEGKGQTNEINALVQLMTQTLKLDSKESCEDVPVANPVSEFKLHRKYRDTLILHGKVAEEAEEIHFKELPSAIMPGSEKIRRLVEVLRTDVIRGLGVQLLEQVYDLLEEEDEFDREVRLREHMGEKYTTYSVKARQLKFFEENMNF

[4] = target: panel of more than 300 wild-type and mutant kinases (313 kinase panel) (Homo sapiens, UniProt P78362)
[5] = target: panel of more than 300 wild-type and mutant kinases (313 kinase panel) (Homo sapiens, UniProt Q05655)
[6] = target: panel of more than 300 wild-type and mutant kinases (313 kinase panel) (Homo sapiens, UniProt Q9HCP0)
[7] = target: panel of more than 300 wild-type and mutant kinases (313 kinase panel) (Homo sapiens, UniProt Q9Y463)
Sequence of panel of more than 300 wild-type and mutant kinases (313 kinase panel) (Homo sapiens, UniProt Q9Y463) (Q9Y463 whole entry, change not shown): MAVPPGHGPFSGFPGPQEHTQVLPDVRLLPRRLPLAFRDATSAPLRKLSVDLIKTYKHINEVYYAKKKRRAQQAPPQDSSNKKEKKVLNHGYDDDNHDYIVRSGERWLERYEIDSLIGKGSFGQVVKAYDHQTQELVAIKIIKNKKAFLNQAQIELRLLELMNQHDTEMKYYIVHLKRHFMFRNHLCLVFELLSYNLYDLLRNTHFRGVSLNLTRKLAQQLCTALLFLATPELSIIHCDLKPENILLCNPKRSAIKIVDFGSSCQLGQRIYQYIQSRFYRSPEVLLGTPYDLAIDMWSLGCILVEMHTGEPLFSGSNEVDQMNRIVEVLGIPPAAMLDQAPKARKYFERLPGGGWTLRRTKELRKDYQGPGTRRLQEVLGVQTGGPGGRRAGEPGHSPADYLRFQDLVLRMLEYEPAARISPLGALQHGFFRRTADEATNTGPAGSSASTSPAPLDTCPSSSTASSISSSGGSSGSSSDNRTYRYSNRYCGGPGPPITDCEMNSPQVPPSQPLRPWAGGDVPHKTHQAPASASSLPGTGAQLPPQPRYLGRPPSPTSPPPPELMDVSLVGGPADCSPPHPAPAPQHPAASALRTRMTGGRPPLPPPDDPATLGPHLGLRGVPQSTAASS

[8] = target: panel of more than 300 wild-type and mutant kinases (313 kinase panel) (Homo sapiens, UniProt P24941)
[9] = target: panel of more than 300 wild-type and mutant kinases (313 kinase panel) (Homo sapiens, UniProt P27448)
Sequence of panel of more than 300 wild-type and mutant kinases (313 kinase panel) (Homo sapiens, UniProt P27448) (P27448 whole entry, change not shown): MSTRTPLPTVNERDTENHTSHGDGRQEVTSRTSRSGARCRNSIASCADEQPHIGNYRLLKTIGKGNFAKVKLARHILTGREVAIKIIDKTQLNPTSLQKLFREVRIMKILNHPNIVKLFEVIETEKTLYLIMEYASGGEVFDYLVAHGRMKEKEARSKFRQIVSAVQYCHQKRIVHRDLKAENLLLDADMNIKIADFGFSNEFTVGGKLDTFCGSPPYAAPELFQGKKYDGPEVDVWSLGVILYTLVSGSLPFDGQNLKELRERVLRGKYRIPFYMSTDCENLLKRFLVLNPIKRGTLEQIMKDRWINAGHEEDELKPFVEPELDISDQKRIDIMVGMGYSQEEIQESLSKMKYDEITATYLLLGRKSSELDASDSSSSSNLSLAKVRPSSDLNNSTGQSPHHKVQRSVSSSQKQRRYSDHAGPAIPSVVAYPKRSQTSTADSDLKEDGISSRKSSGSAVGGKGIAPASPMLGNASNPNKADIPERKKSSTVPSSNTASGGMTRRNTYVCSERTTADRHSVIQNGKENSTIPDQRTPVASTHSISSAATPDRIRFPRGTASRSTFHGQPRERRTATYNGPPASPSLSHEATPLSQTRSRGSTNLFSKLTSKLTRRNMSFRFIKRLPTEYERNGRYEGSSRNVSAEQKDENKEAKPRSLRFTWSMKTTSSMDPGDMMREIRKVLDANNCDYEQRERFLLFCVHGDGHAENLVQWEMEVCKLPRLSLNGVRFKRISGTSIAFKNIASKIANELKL

[10] = target: T2, panel of more than 300 wild-type and mutant kinases (313 kinase panel) (Homo sapiens, UniProt P52564)
T2 sequence (P52564 1-334): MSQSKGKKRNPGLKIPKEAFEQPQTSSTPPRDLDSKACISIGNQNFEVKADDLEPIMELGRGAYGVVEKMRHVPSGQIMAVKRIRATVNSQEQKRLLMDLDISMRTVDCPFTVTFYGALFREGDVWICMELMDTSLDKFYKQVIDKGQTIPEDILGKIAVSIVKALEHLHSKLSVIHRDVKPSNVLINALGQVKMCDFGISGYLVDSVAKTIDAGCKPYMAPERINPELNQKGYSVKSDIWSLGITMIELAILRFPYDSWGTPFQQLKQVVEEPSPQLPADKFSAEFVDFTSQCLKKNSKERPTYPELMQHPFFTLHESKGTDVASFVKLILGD

[11] = target: panel of more than 300 wild-type and mutant kinases (313 kinase panel) (Homo sapiens, UniProt Q9P289)
Sequence of panel of more than 300 wild-type and mutant kinases (313 kinase panel) (Homo sapiens, UniProt Q9P289) (Q9P289 whole entry, change not shown): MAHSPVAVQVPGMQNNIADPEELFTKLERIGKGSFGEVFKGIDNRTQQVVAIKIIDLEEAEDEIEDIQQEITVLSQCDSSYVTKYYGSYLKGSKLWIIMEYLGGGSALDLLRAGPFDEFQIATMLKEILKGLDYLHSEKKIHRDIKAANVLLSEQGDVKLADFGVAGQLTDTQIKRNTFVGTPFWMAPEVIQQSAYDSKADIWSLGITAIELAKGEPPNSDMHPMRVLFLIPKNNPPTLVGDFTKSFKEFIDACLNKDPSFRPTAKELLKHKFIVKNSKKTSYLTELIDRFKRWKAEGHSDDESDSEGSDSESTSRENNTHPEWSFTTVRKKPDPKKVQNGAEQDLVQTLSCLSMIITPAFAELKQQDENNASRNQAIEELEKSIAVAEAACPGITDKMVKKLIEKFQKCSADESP

[12] = kinase DYRK1B, compound at 1 μM
[13] = kinase CDK2/CycA2, 1 μM compound
[14] = kinase CDK2/CycE1, 1 μM compound
[15] = kinase MAP2K6, compound at 1 μM

Row | Structure (SMILES) | %-inhibition of HGK ([1]; kinase HGK, compound at 1 μM) | %-inhibition of EPHB2 ([2]; kinase EPHB2, compound at 1 μM) | %-inhibition of NEK4 ([3]; kinase NEK4, 1 μM) | %-inhibition of SRPK2 ([4]; kinase SRPK2, 1 μM) | %-inhibition of PKCδ ([5]; kinase PKCδ, 1 μM) | %-inhibition, CK1γ1 ([6]; kinase CK1γ1, 1 μM compound) | %-inhibition of DYRK1B [7, 12] | %-inhibition, CDK2/CycA2 [8, 13] | %-inhibition, CDK2/CycE1 [8, 14] | %-inhibition of MARK3 ([9]; kinase MARK3, compound at 1 μM) | %-inhibition of MAP2K6 [10, 15] | %-inhibition of MST4 ([11]; kinase MST4, 1 μM) | also measured
1 | COc1cc(Nc2c(C#N)cnc3cc(OCCCN4CCN(C)CC4)c(OC)cc23)c(Cl)cc1Cl [bosutinib] | 100% | 95% | 84% | -9% | 63% | 14% | -5% | – | – | – | – | – | –
2 | COc1cc2nccc(Oc3ccc(NC(=O)C4(C(=O)Nc5ccc(F)cc5)CC4)cc3)c2cc1OC [cabozantinib] | 21% | 96% | 16% | 0.2% | -0.835% | 4.74% | -5% | -9% | 5% | -3% | 83% | -1.74% | –
3 | C[C@@H](Oc1cc(-c2cnn(C3CCNCC3)c2)cnc1N)c1c(Cl)ccc(F)c1Cl [crizotinib] | – | 57% | 4.57% | -2.33% | -1.14% | -3.52% | -3% | – | -14% | 41% | 19% | 0.54% | –
4 | CC(C)(C)c1nc(-c2cccc(NS(=O)(=O)c3c(F)cccc3F)c2F)c(-c2ccnc(N)n2)s1 [dabrafenib] | 7% | -3.38% | 4% | 11% | -6% | – | 29% | – | – | 4% | 1.34% | -7% | –
5 | Cc1nc(Nc2ncc(C(=O)Nc3c(C)cccc3Cl)s2)cc(N2CCN(CCO)CC2)n1 [dasatinib] | 78% | – | 1.17% | – | – | – | – | 5% | 12% | – | 47% | – | –
6 | C#Cc1cccc(Nc2ncnc3cc(OCCOC)c(OCCOC)cc23)c1 [erlotinib] | – | – | – | – | – | – | – | – | – | – | – | – | %-inhibition of HGK ([1]; 1 µM): 50%; %-inhibition, CDK2/CycA2 ([8]; 1 µM): 10%; %-inhibition, CDK2/CycE1 ([8]; 1 µM): -2.43%; %-inhibition of MARK3 ([9]; 1 µM): 9%; %-inhibition of EPHB2 ([2]; 1 µM): 23%; %-inhibition of NEK4 ([3]; 1 µM): 0.778%; %-inhibition of MAP2K6 ([10]; 1 µM): 6%; %-inhibition of SRPK2 ([4]; 1 µM): 4.47%; %-inhibition of PKCδ ([5]; 1 µM): 5%; %-inhibition, CK1γ1 ([6]; 1 µM): 2.22%; %-inhibition of MST4 ([11]; 1 µM): 7%; %-inhibition of DYRK1B [7]: -28%
7 | CO[C@H]1C[C@@H]2CC[C@@H](C)[C@@](O)(O2)C(=O)C(=O)N2CCCC[C@H]2C(=O)O[C@H]([C@H](C)C[C@@H]2CC[C@@H](OCCO)[C@H](OC)C2)CC(=O)[C@H](C)/C=C(\C)[C@@H](O)[C@@H](OC)C(=O)[C@H](C)C[C@H](C)/C=C/C=C/C=C/1C [everolimus] | 0.896% | -7% | 0.832% | -10% | -10% | -2.44% | -8% | -11% | -14% | -4% | 13% | -5.58% | –
8 | O=S(=O)(c1cccc2cnccc12)N1CCCNCC1 [fasudil] | -1.82% | -7.43% | -1.87% | -1.36% | 19% | -3% | 4.76% | 22% | 13% | 13% | 2.2% | 0.181% | –
9 | CS(=O)(=O)CCNCc1ccc(-c2ccc3ncnc(Nc4ccc(OCc5cccc(F)c5)c(Cl)c4)c3c2)o1 [lapatinib] | – | 4.6% | 0.649% | 4.47% | -1.67% | -8.54% | 3% | – | – | – | – | – | %-inhibition of HGK ([1]; 1 µM): 1%; %-inhibition, CDK2/CycE1 ([8]; 1 µM): -2.57%; %-inhibition of MARK3 ([9]; 1 µM): 3.43%; %-inhibition of MAP2K6 ([10]; 1 µM): 9%
10 | Cc1cn(-c2cc(NC(=O)c3ccc(C)c(Nc4nccc(-c5cccnc5)n4)c3)cc(C(F)(F)F)c2)cn1 [nilotinib] | – | 85% | -22% | -0.605% | – | – | -7.58% | -0.282% | 20% | 11% | 84% | 1.77% | %-inhibition of HGK ([1]; 1 µM): 4%; %-inhibition of PKCδ ([5]; 1 µM): -14%; %-inhibition, CK1γ1 ([6]; 1 µM): -1%
11 | Cc1ccc(C(=O)Nc2ccc(CN3CCN(C)CC3)c(C(F)(F)F)c2)cc1C#Cc1cnc2cccnn12 [ponatinib] | 92% | 102% | 98% | -3% | 50% | -4% | 2% | -9% | 9% | – | – | – | –
12 | N#CC[C@H](C1CCCC1)n1cc(-c2ncnc3[nH]ccc23)cn1 [ruxolitinib] | 1.09% | 5.54% | -6% | 9% | 2% | -4% | 8% | 2.48% | -12% | – | 44% | -3% | –
13 | CCN(CC)CCNC(=O)c1c(C)[nH]c(/C=C2\C(=O)Nc3ccc(F)cc32)c1C [sunitinib] | 96% | 81% | – | – | – | – | – | – | – | – | – | 34% | –
